Test results from EPA's ToxValDB 9.5.
Several values for one entry are separate records, joined by “and”; a condition that tells them apart may be missing. Equal entries are not always repeated.

Experiments:
Canidae [1] = details: oral, Dog Other
Coturnix japonica = details: repeat dose other; oral
Neovison sp. = details: repeat dose other; oral; Mink
Rattus norvegicus [2] = test system: Rattus norvegicus
Cavia porcellus [3] = details: acute, duration: 1 days, oral, gavage, M, Guinea Pig
Rattus norvegicus [4] = details: short-term; duration: 3 days; injection; subcutaneous; F; Crj:CD; uterus: uterine dry weight (absolute)
Canidae [5] = details: subchronic; oral; M/F; Dog Other; internal hemorrhage, mortality
Cavia porcellus [6] = details: acute, oral, Guinea Pig
Mus musculus [7] = details: oral
Oryctolagus sp. = details: acute
Rattus norvegicus [8] = details: for LD50: acute
Rattus norvegicus [9] = details: repeat dose other; oral
Rattus norvegicus [10] = details: subchronic; oral; drinking water; M/F; Fischer 344; Body Weight Changes: decrease + Water Consumption: decrease + Hematology: WBC increase, Lymph increase, Hgb decrease, RBC decrease, MCH …
Rattus norvegicus [11] = details: subchronic; oral; drinking water; M/F; nephropathy
Homo sapiens [12] = details: clinical; duration: 4 hours; inhalation; M/F; neurological
Rattus norvegicus [13] = details: subchronic; duration: 90 days; oral; gavage; Kidney: Increased weight + Kidney: Nephrotoxicity + Liver: Increased weight
Macaca mulatta = details: repeat dose other; oral
Mus musculus [14] = details: chronic; oral; M/F; Brain cell vacuolization + liver cell alterations in females
Mus musculus [15] = details: chronic; duration: 33 months; oral; drinking water; Brain: Cellular changes + Liver: Cellular changes
Homo sapiens [16] = details: clinical; oral; M/F; Decreased respiratory function
[17] = short-term, duration: 11 days, diet, B6C3F1
[18] = subchronic, duration: 3 months, gavage, B6C3F1
[19] = short-term, duration: 9 days, oral, gavage, Fischer 344
[20] = subchronic, duration: 3 months, oral, diet, Wistar
[21] = subchronic, duration: 3 months, oral, gavage, Fischer 344

Which NOAEL (Canidae [1]; short-term, duration: 8 days, Cholinesterase: Decreased cholinesterase activity) does the source give for `CNC(=O)ON=C(CSC)C(C)(C)C` here?
Its NOAEL is 0.025 mg/kg-day.

With `ClC1C(Cl)C(Cl)C(Cl)C(Cl)C1Cl` (centres undefined) [1,2,3,4,5,6-Hexachlorocyclohexane] as the molecule, how does the LOAEL (Coturnix japonica) read?
The LOAEL was 2.25 mg/kg-day.

And the NOAEL (Coturnix japonica)?
The NOAEL was 0.56 mg/kg-day.

What about the LOAEL (Neovison sp.) of the same molecule?
Its LOAEL is 0.14 mg/kg-day.

And the NOAEL (Neovison sp.)?
Its NOAEL is 0.014 mg/kg-day.

`Oc1ccccc1Cc1ccccc1O` [2,2'-Bisphenol F] was tested. Which LEL (Rattus norvegicus [2]; uterotrophic, duration: 3 days, injection, subcutaneous, Active) did it give?
Its LEL is 46.5 mg/kg-day.

And the LOEL (Cavia porcellus [3]; BALF eosinophil peroxidase activity + BALF histamine activity + BALF total leukocytes + specific airway resistance (sRaw) - immediate …)?
The LOEL was 12.5 mg/kg-day.

And the LOEL (Cavia porcellus [3]; BALF phospholipase A2 activity)?
The LOEL was 50 mg/kg-day.

What about the NOEL (Cavia porcellus [3]; BALF phospholipase A2 activity) of the same molecule?
The NOEL was 25 mg/kg-day.

And the LOEL (Rattus norvegicus [4])?
Its LOEL is 200 mg/kg-day.

And the NOEL (Rattus norvegicus [4])?
The NOEL was 20 mg/kg-day.

For `O=C(O)CCCOc1ccc(Cl)cc1Cl` [2,4-Dichlorophenoxybutyric acid], which LOAEL (Canidae [5]) is on record?
Its LOAEL is 25 mg/kg-day.

What about the NOAEL (Canidae [5]) of the same molecule?
The NOAEL was 8 mg/kg-day.

And the NOAEL (Canidae [1]; subchronic, duration: 90 days, diet, Cardiovascular system: Hemorrhage + Whole body: Increased mortality)?
Its NOAEL is 8 mg/kg-day.

What does the source list for `CCCCC(CC)CO` (centres undefined) [2-Ethyl-1-hexanol]?
LD50 (Cavia porcellus [6]): ≥ 1220 mg/kg and ≤ 2820 mg/kg; LD50 (Cavia porcellus [6]; gavage): 600 mg/kg; NOAEL (Mus musculus [7]; developmental, duration: 18 days, diet, CD1): > 191 mg/kg-day; NOAEL (% diet) (Mus musculus [7]; repeat dose other, diet, B6C3F1): ≥ 0.44 and ≤ 0.66; NOAEL (Mus musculus [7]; reproduction developmental, duration: 18 days, diet, F, CD1): > 191 mg/kg-day; NOAEL (Mus musculus [7]; reproduction developmental, diet, F, CD1): > 191 mg/kg-day; LOAEL (Mus musculus [7]; [17]): ≥ 1000 mg/kg-day and ≤ 1500 mg/kg-day; LOAEL (% diet) (Mus musculus [7]; [17]): ≥ 0.66 and ≤ 1.32; NOAEL (% diet) (Mus musculus [7]; [17]): ≥ 0.44 and ≤ 0.66; NOAEL (Mus musculus [7]; short-term, duration: 11 days, diet, F, B6C3F1): 2650 mg/kg-day and 1000 mg/kg-day; NOAEL (Mus musculus [7]; short-term, duration: 11 days, gavage, B6C3F1): 100 mg/kg-day; LOAEL (Mus musculus [7]; [18]): ≥ 250 mg/kg-day and ≤ 500 mg/kg-day; NOAEL (Mus musculus [7]; [18]): ≥ 125 mg/kg-day and ≤ 250 mg/kg-day; NOAEL (Mus musculus [7]; subchronic, duration: 3 months, gavage, F, B6C3F1): 250 mg/kg-day; NOAEL (Mus musculus [7]; subchronic, duration: 3 months, gavage, M, B6C3F1): 125 mg/kg-day; LD50 (Oryctolagus sp.; dermal): > 2600 mg/kg and 1980 mg/kg; LD50 (Oryctolagus sp.; oral): 1180 mg/kg and 1470 mg/kg; LD50 (Rattus norvegicus [8]; dermal): > 3000 mg/kg; LD50 (Rattus norvegicus [8]; oral, gavage, albino): 7000 mg/kg; NOAEL (Rattus norvegicus [8]; developmental, dermal, occlusive, Fischer 344): > 2520 mg/kg-day; NOAEL (Rattus norvegicus [8]; developmental, duration: 10 days, dermal, occlusive, Fischer 344): > 2520 mg/kg-day; NOAEL (Rattus norvegicus [8]; developmental, oral, gavage, Wistar): 650 mg/kg-day; NOAEL (Rattus norvegicus [8]; repeat dose other, inhalation, Wistar): 0.648 mg/L and 0.32 mg/L; NOAEL (% diet) (Rattus norvegicus [8]; repeat dose other, oral, diet, Fischer 344): 0.46; LOAEL (Rattus norvegicus [8]; repeat dose other, oral, gavage, Fischer 344): 100 mg/kg-day; NOAEL (Rattus norvegicus [8]; reproduction developmental, duration: 10 days, oral, gavage, F, Wistar): 130 mg/kg-day; NOAEL (Rattus norvegicus [8]; reproduction developmental, oral, gavage, F, Wistar): 130 mg/kg-day; NOAEL (Rattus norvegicus [8]; short-term, duration: 9 days, oral, drinking water, Fischer 344): 636 ppm; LOAEL (Rattus norvegicus [8]; [19]): 100 mg/kg-day; NOAEL (Rattus norvegicus [8]; [19]): 83 mg/kg-day; NOAEL (Rattus norvegicus [8]; short-term, duration: 14 days, inhalation, Wistar): 0.32 mg/L; LOAEL (Rattus norvegicus [8]; short-term, duration: 21 days, oral, gavage, Fischer 344): 100 mg/kg-day; LOAEL (% diet) (Rattus norvegicus [8]; [20]): 0.25; NOAEL (% diet) (Rattus norvegicus [8]; [20]): 0.05; LOAEL (Rattus norvegicus [8]; [21]): 250 mg/kg-day; NOAEL (Rattus norvegicus [8]; [21]): 125 mg/kg-day and ≤ 250 mg/kg-day; NOAEL (Rattus norvegicus [8]; subchronic, duration: 13 weeks, oral, gavage): 250 mg/kg-day

Which results are given for `CC(C)=O` [Acetone]?
LOAEL (Rattus norvegicus [9]): 50 mg/kg-day; NOAEL (Rattus norvegicus [9]): 10 mg/kg-day; NOEL (Rattus norvegicus [10]): 380 mg/kg-day; LOAEL (Rattus norvegicus [11]): 1700 mg/kg-day; NOAEL (Rattus norvegicus [11]): 900 mg/kg-day; LOAEL (Homo sapiens [12]): 563 mg/m3; NOEL (Rattus norvegicus [2]; Hershberger, duration: 10 days, oral, gavage, Sprague-Dawley, inactive + Negative + Negative + neither + see comment): 1000 mg/kg-day; NOEL (Rattus norvegicus [13]): 100 mg/kg-day

What does the source list for `Clc1cc(Cl)cc(-c2cc(Cl)cc(Cl)c2)c1` [Aroclor 1248]?
LOAEL (Macaca mulatta): 0.1 mg/kg-day; NOAEL (Macaca mulatta): 0.01 mg/kg-day

With `Nc1ccc(-c2ccc(N)cc2)cc1` [C.I. Azoic Diazo Component 112] as the molecule, how does the LOAEL (Mus musculus [14]) read?
The LOAEL was 2.7 mg/kg-day.

And the LOAEL (Mus musculus [15])?
Its LOAEL is 2.7 mg/kg-day.

How did the NOEL (Homo sapiens [16]) turn out when `CC(C)NCC(O)COc1cccc2[nH]c3ccccc3c12` (centres undefined) [Carazolol] was run?
The NOEL was 0.0005 mg/kg-day.
